Measurements: patent publication US12433863B2, “Pharmaceutical compositions and uses directed to lysosomal storage disorders” (INTRABIO LIMITED, priority 2016, dated 2025)

Tests used:
[1] = tested on: Hexb^−/− mouse (Sandhoff disease model); experiment: Sandhoff disease mouse model (lifespan, bar crossing test, step cycle); format: in vivo
Description: This study made use of a mouse model of Sandhoff disease, the Hexb^−/− mouse, as described in Jeyakumar et al. (Jeyakumar, M. et al. (1999) Proc. Natl. Acad. Sci. USA 96: 6388-6393).
Wild-type (Hexb^+/+) mice were used as controls.
In FIG. 7A, acetyl-leucine-treated mice were treated with 0.1 g/kg acetyl-leucine from 3 weeks of age. The asterisks (*) indicates a p-value of <0.05 vs untreated Sandhoff mice. Data is average of n=6 mice per group. Without treatment, the median survival time of Sandhoff mice was 112 days. Treatment with acetyl-leucine (0.1 g/kg body weight since 3 weeks of age) increased the median lifespan to 120 days.
The bar crossing test is a method for assessing motor function in mice in which the mouse is placed hanging from the centre of a horizontal bar by its front limbs. A wild-type mouse with normal motor function will be able to engage its hind limbs and thereby move to one of the platforms at either end of the bar, and in doing so complete the test.
An untreated Sandhoff mouse is able to complete the test up until around 11 weeks of age. After this point motor function and hind-limb mobility/engagement have deteriorated to the point to which the mouse cannot complete the test, and will drop from the bar onto the padded surface below.
Step cycle is the length of time taken during locomotion by a limb from the time it leaves the ground until it leaves the ground on the next occasion.
Step cycle time was assessed at 12 weeks of age in untreated and acetyl-leucine treated Sandhoff model mice. Acetyl-leucine treatment constituted 0.1 g/kg body weight acetyl-leucine from 3 weeks of age.

[2] = tested on: wild-type (Npc1^+/+) mice; experiment: In vivo mouse study in wild-type (Npc1+/+) littermates (weight, gait, motor function)
Description: Wild-type (Npc1^+/+) littermates were used as a control.
Separate groups of Npc1^−/− and Npc1^+/+ mice were left untreated, as controls.
Animals were weighed twice a week. Weights were averaged (mean) across all mice in each group and compared.
Gait analysis was performed on mice at eight weeks of age using a CatWalk® 15.0 system according to manufacturer's instructions (Noldus, Nottingham, UK). Five runs were recorded per animal.
CatWalk® parameters measured were: • 1. Stand Mean: average duration (s) of paws in contact with glass plate; • 2. Step Cycle: duration (s) between two consecutive contacts of the same paw; • 3. Duty Cycle: percentage of time paws in contact with plate compared with time to complete a step cycle; • 4. Step Sequence (AB): percentage of time spent walking in LF-RH-RF-LH alternating pattern (LF: left front; RH: right hind; RF: right front; LH left hind); • 5. Cadence: step per seconds in a trial; • 6. Diagonal Support: percentage of time with simultaneous contact of diagonal paws with the glass plate (RF&LH or RH&LF). Motor Function Analysis
Motor function analysis was performed on mice at eight and nine weeks of age using an Open Field Activity Monitor according to manufacturer's instructions (Linton Instruments, Amlogger Software). Each mouse was placed in a plastic cage with bedding and analysed for five minutes. Rears were counted manually.
Motor function parameters measured were: • 1. Centre Rearing: mice rearing on hind legs unsupported; • 2. Rearing: mice rearing on hind legs with and without the support of cage walls; • 3. Activity: regular movement of the animal including walks; • 4. Front to Back (FR) count: movement of the animal from front to back of the cage; • 5. Active Time: duration (s/min) of activeness regardless of movement; • 6. Mobile Time: duration (s/min) of mobility; • 7. Rearing Time: duration of any rearing.

[3] = tested on: AB variant of Tay-Sachs disease patient fibroblasts; experiment: Glycosphingolipid (GSL) levels by HPLC in AB variant of Tay-Sachs disease patient fibroblasts; format: cell-based, human; settings: 1 mM for 6 days

CC(=O)NC(CC(C)C)C(=O)O (racemic) [acetyl-DL-leucine]
Average step cycle time ([1]; Sandhoff mice, 12 weeks of age, 0.1 g/kg from 3 weeks, p<0.001 vs untreated): significantly faster average step cycle times
Hind step cycle time ([1]; Sandhoff mice, 12 weeks of age, 0.1 g/kg from 3 weeks, p<0.01 vs untreated): significantly faster hind step cycle times
Front step cycle time ([1]; Sandhoff mice, 12 weeks of age, 0.1 g/kg from 3 weeks, p<0.05 vs untreated): significantly faster front step cycle times
Motor function assessed via the bar-crossing test ([1]; Sandhoff mouse model, 0.1 g/kg body weight from 3 weeks of age): improved motor function and hind-limb mobility/engagement
Lifespan versus untreated Sandhoff mice ([1]; Sandhoff mouse, 0.1 g/kg from 3 weeks of age, p<0.05): statistically significant increase in the lifespan
Effect on weight gain ([2]; 0.1 g/kg from weaning, three to 10 weeks of age): no significant effect
Gait properties versus untreated littermates ([2]; 0.1 g/kg, eight weeks of age): no significant difference
Motor function properties versus untreated littermates ([2]; 0.1 g/kg, nine weeks of age): no significant difference
GSL levels (GSL storage) [3]: trend towards decreased GSL levels
